Results on 1 compound are retold here after patent US20160192658A1 (priority 2013, published 2016).

The nature of this data set: in vitro. The conditions noted are these: human.

As for `NC(=O)c1ncn([C@@H]2O[C@H](CO)[C@@H](O)[C@H]2O)n1` [Ribavirin, ribavirin], the CC50 at 5 days was > 200 µM.
